Earlier results, collected in US20220362237A1, “PS[…] TREATMENT OF PAIN” (Mind Medicine, Inc., priority 2021, published 2022).

How the values were obtained:
[1] = 20-microgram dose
5-HT2A receptor = 5-HT2A receptor (Homo sapiens, UniProt P28223)
[2] = tested on: serotonin 5-HT1 receptors
5-HT transporter (SERT) = 5-HT transporter (SERT) (Homo sapiens, UniProt P31645)
[3] = grave and terminally ill patients, acute treatment (one or two doses); pain returned after several days
D2 receptors = D2 receptors (Homo sapiens, UniProt P14416)
Sequence of D2 receptors (P14416 whole entry): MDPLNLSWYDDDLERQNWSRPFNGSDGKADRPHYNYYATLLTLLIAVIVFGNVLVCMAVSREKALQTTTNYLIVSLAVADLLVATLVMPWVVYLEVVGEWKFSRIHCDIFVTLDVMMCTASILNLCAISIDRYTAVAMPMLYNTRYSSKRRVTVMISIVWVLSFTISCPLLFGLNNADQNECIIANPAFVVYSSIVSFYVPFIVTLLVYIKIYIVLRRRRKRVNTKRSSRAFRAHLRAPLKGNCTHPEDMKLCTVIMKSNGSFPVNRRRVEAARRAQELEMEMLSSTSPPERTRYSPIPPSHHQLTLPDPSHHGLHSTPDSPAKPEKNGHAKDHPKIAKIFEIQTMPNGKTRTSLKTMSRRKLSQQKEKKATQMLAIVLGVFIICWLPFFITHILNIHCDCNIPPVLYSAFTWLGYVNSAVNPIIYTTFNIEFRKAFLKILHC

5HT2A receptors = settings: tumor necrosis factor-alpha-induced inflammation

Sequence of 5-HT transporter (SERT) (P31645 whole entry, species assumed): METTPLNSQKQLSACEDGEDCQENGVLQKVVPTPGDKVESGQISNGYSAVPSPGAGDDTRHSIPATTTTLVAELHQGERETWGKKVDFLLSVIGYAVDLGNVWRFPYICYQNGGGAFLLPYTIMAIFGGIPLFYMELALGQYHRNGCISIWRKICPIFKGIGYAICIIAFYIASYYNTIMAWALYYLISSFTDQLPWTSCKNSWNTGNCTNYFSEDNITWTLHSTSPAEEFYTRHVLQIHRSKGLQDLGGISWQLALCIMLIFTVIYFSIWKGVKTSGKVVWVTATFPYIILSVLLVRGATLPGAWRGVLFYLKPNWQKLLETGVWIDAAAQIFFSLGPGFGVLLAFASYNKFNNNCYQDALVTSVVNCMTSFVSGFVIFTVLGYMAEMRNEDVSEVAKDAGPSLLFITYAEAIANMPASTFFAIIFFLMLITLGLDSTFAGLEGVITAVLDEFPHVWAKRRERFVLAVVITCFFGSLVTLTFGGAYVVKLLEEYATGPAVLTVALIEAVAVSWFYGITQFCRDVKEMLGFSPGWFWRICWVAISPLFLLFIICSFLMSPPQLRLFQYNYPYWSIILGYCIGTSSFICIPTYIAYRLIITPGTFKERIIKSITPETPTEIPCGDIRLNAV
Sequence of 5-HT2A receptor (P28223 whole entry): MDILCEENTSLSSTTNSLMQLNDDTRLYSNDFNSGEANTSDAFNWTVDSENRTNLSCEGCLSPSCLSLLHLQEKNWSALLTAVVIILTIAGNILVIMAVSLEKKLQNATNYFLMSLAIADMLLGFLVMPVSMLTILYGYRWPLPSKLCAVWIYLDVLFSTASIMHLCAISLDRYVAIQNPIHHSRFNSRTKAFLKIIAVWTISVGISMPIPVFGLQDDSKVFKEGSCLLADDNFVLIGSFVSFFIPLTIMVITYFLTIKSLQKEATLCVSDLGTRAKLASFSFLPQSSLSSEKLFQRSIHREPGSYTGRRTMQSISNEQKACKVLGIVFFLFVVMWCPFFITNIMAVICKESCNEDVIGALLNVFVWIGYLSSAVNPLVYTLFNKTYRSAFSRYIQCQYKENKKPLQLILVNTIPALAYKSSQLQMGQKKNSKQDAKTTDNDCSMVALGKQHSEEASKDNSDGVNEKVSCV

In the case of CCN(CC)C(=O)[C@@H]1C=C2c3cccc4[nH]cc(c34)C[C@H]2N(C)C1 [LSD, lysergic acid diethylamide], the “subjective levels of experienced pain and unpleasantness” value [1] is given as “decreased”, the “time that participants could tolerate cold water exposure” value [1] is given as “significantly increased” and the “stimulation of the 5-HT2A receptor” value (5-HT2A receptor) is given as “potently stimulates”. For the same compound, the “agonist potency at serotonin 5-HT1 receptors” value (shortened to “agonist potency”) [2] was “potent agonists”, the “interaction with / inhibition of the 5-HT transporter (SERT)” value (5-HT transporter (SERT)) was “does not interact” and the “pain relief compared with the narcotics meperidine and dihydromorphinone” value [3] was “greater and longer lasting pain relief”. For the same compound, the “stimulation of 5-HT2B/C receptors” value (5-HT2B/C) was “stimulates” and the “stimulation of D1-3 receptors” value (D1-3 receptors) was “stimulates”.
For CN(C)CCc1c[nH]c2cccc(O)c12 [psilocin], the “agonist potency” value [2] is listed as “potent agonists” and the “interaction with / inhibition of the 5-HT transporter (SERT)” value (5-HT transporter (SERT)) is listed as “inhibits”.
In the case of COc1cc(CCN)cc(OC)c1OC [mescaline], the “affinity for D2 receptors” value (D2 receptors) is listed as “no affinity” and the “agonist potency” value [2] is listed as “low potency”.
In the case of COc1cc(CC(C)N)c(OC)cc1I (stereo not shown) [R-DOI, 2,5-dimethoxy-4-iodoamphetamine], the anti-inflammatory effect (5HT2A receptors) is listed as “potent anti-inflammatory effect”.
